In PubChem BioAssay (NCI) one finds GI50 and TGI data, which are given here for 15 compounds.

“And” between values parts separate entries of the source, which are not always exact repeats. Identical values can stand only once.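 Protocol summary: plate cells (96-well), add compound at 5 concentrations, incubate 48 h, interpolate endpoints linearly. Here, GI50 denotes the concentration required for 50% inhibition of growth. TGI is the concentration that stops growth completely.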

The first experiment concerns MDA-MB-231 breast. In words: NCI tumour cell line growth inhibition, 48 h.
`Cc1ccc(C(=O)Nc2ccc(CN3CCN(C)CC3)c(C(F)(F)F)c2)cc1C#Cc1cnc(N)c2ccc(F)cc12`: the GI50 is 353 nM and the TGI came out at 0.905 µM.

Turning to `CC1(C)CCC(C)(C)c2cc(C(=O)Nc3ccc(C(=O)O)cc3)ccc21`, the TGI was over 95.2 µM.

Compound `CC1=C(C(=O)NC2CCCCC2)CC(C(=O)NC2CCCCC2)=C(C)N1` yielded a TGI of over 100 µM.

With `Cn1cc(C2=C(c3cn(C)c4ccc(N)cc34)C(=O)NC2=O)c2ccccc21`, the GI50 was over 25000 nM and the TGI is over 25 µM.

For the compound `S=C(N/N=C/c1cc(Cl)cc(Cl)c1)NC12CC3CC(CC(C3)C1)C2`, the GI50 was 3990 nM and the TGI is over 100 µM.

Consider `CCCCN1C(=O)CC2[C@@H]3CCc4cc(OC)ccc4C3CC[C@]2(C)C1=O` (some centres undefined), for which the TGI is over 10 µM.

`Cc1nc(SCC(N)=O)c2sc(=S)n(-c3ccccc3)c2n1`: the TGI was over 10 µM.

`COc1cc(-c2oc3ccccc3c(=O)c2O)cc(OC)c1OC` yielded a TGI of over 100 µM.

`CSc1ccc(/C=C2\CNC/C(=C\c3ccc(SC)cc3)C2=O)cc1` showed a TGI of 362 µM.

Regarding `C/C(=N\O)c1ccc(Nc2cc(-n3nnc4ccccc43)nc3ccccc23)cc1`, the GI50 is 2530 nM and the TGI worked out at 9.37 µM.

Consider `C[C@]12CC[C@@H]3c4ccc(O)c([N+](=O)[O-])c4CC[C@H]3[C@@H]1CC[C@@H]2NS(=O)(=O)c1ccc(C(F)(F)F)cc1`, for which the GI50 was 1490 nM and the TGI was 2.93 µM.

In the case of `Clc1ccc(COC(Cn2ccnc2)c2ccc(Cl)cc2Cl)cc1` (centres undefined), the GI50 was 1040 nM; the TGI is 8.48 µM and 26.9 µM and 26 µM.

For the compound `CC[C@H](C)[C@H](NC(=O)c1cnccn1)C(=O)N(C)[C@H](C[C@@H](OC(C)=O)c1nc(C(=O)N[C@@H](Cc2ccccc2)C[C@H](C)C(=O)OC)cs1)C(C)C`, the GI50 is 1390 nM and the TGI is 19.6 µM.

Take `CC(C)n1c(/C=C/[C@@H](O)C[C@@H](O)CC(=O)O)c(-c2ccc(F)cc2)c2ccccc21`: the GI50 is 219 nM and the TGI is 0.535 µM.

In turn, `CCOc1ccc(NCC2CC/C(=C\C=C\c3ccccc3)C2=O)cc1` (centres undefined) returned a TGI of 24.7 µM.

The subject of a further experiment is HCT-116 colon. The experiment in a line: NCI tumour cell line growth inhibition, 48 h.
For the compound `Cc1ccc(C(=O)Nc2ccc(CN3CCN(C)CC3)c(C(F)(F)F)c2)cc1C#Cc1cnc(N)c2ccc(F)cc12`, the GI50 is 192 nM and the TGI was 0.533 µM.

For the compound `CC1(C)CCC(C)(C)c2cc(C(=O)Nc3ccc(C(=O)O)cc3)ccc21`, the TGI came to 37.4 µM.

In turn, `CC1=C(C(=O)NC2CCCCC2)CC(C(=O)NC2CCCCC2)=C(C)N1` yielded a TGI of over 100 µM.

With `Cn1cc(C2=C(c3cn(C)c4ccc(N)cc34)C(=O)NC2=O)c2ccccc21`, the GI50 was 6650 nM and the TGI was over 25 µM.

As for `S=C(N/N=C/c1cc(Cl)cc(Cl)c1)NC12CC3CC(CC(C3)C1)C2`, the GI50 was 5240 nM and the TGI was over 100 µM.

As for `CCCCN1C(=O)CC2[C@@H]3CCc4cc(OC)ccc4C3CC[C@]2(C)C1=O` (some centres undefined), the TGI was over 10 µM.

In turn, `Cc1nc(SCC(N)=O)c2sc(=S)n(-c3ccccc3)c2n1` displayed a TGI of over 10 µM.

In the case of `COc1cc(-c2oc3ccccc3c(=O)c2O)cc(OC)c1OC`, the TGI is over 100 µM.

In the case of `CSc1ccc(/C=C2\CNC/C(=C\c3ccc(SC)cc3)C2=O)cc1`, the GI50 was 31.4 µg/mL; the TGI was > 371 µM and 150 µg/mL.

For the compound `C/C(=N\O)c1ccc(Nc2cc(-n3nnc4ccccc43)nc3ccccc23)cc1`, the GI50 is 7640 nM and the TGI came out at 23.7 µM.

As for `C[C@]12CC[C@@H]3c4ccc(O)c([N+](=O)[O-])c4CC[C@H]3[C@@H]1CC[C@@H]2NS(=O)(=O)c1ccc(C(F)(F)F)cc1`, the GI50 was 1600 nM and the TGI amounted to 2.99 µM.

With `Clc1ccc(COC(Cn2ccnc2)c2ccc(Cl)cc2Cl)cc1` (centres undefined), the GI50 was 1420 nM; the TGI was 3.1 µM and 21.1 µM and 20.2 µM.

Take `CC[C@H](C)[C@H](NC(=O)c1cnccn1)C(=O)N(C)[C@H](C[C@@H](OC(C)=O)c1nc(C(=O)N[C@@H](Cc2ccccc2)C[C@H](C)C(=O)OC)cs1)C(C)C`: the GI50 is 1190 nM and the TGI was over 33.3 µM.

For the compound `CC(C)n1c(/C=C/[C@@H](O)C[C@@H](O)CC(=O)O)c(-c2ccc(F)cc2)c2ccccc21`, the GI50 was 1120 nM and 1560 nM; the TGI was 11.1 µM and > 100 µM.

The compound `CCOc1ccc(NCC2CC/C(=C\C=C\c3ccccc3)C2=O)cc1` (centres undefined) showed a TGI of 20.4 µM.

In another experiment the test system is OVCAR-4 ovarian. In words: NCI tumour cell line growth inhibition, 48 h.
Turning to `Cc1ccc(C(=O)Nc2ccc(CN3CCN(C)CC3)c(C(F)(F)F)c2)cc1C#Cc1cnc(N)c2ccc(F)cc12`, the GI50 was 329 nM and the TGI amounted to 2.32 µM.

Consider `CC1(C)CCC(C)(C)c2cc(C(=O)Nc3ccc(C(=O)O)cc3)ccc21`, for which the TGI turned out to be 67.1 µM.

Turning to `CC1=C(C(=O)NC2CCCCC2)CC(C(=O)NC2CCCCC2)=C(C)N1`, the TGI is over 100 µM.

Consider `Cn1cc(C2=C(c3cn(C)c4ccc(N)cc34)C(=O)NC2=O)c2ccccc21`, for which the GI50 is over 20200 nM and the TGI is over 25 µM.

In the case of `S=C(N/N=C/c1cc(Cl)cc(Cl)c1)NC12CC3CC(CC(C3)C1)C2`, the GI50 is 2120 nM and the TGI came to 6.07 µM.

As for `CCCCN1C(=O)CC2[C@@H]3CCc4cc(OC)ccc4C3CC[C@]2(C)C1=O` (some centres undefined), the TGI is over 10 µM.

In turn, `Cc1nc(SCC(N)=O)c2sc(=S)n(-c3ccccc3)c2n1` came in with a TGI of over 10 µM.

On to `COc1cc(-c2oc3ccccc3c(=O)c2O)cc(OC)c1OC`, for which the TGI was over 100 µM.

With `CSc1ccc(/C=C2\CNC/C(=C\c3ccc(SC)cc3)C2=O)cc1`, the GI50 is > 371 µM and 18.7 µg/mL; the TGI is > 371 µM and 28.7 µg/mL.

Regarding `C/C(=N\O)c1ccc(Nc2cc(-n3nnc4ccccc43)nc3ccccc23)cc1`, the GI50 was 13900 nM and the TGI was over 72.2 µM.

As for `C[C@]12CC[C@@H]3c4ccc(O)c([N+](=O)[O-])c4CC[C@H]3[C@@H]1CC[C@@H]2NS(=O)(=O)c1ccc(C(F)(F)F)cc1`, the GI50 is 2440 nM and the TGI was 8.88 µM.

On to `Clc1ccc(COC(Cn2ccnc2)c2ccc(Cl)cc2Cl)cc1` (centres undefined), for which the GI50 is 2290 nM; the TGI is 13.6 µM and 27.7 µM and 24.5 µM.

For the compound `CC[C@H](C)[C@H](NC(=O)c1cnccn1)C(=O)N(C)[C@H](C[C@@H](OC(C)=O)c1nc(C(=O)N[C@@H](Cc2ccccc2)C[C@H](C)C(=O)OC)cs1)C(C)C`, the GI50 is 2520 nM and the TGI is over 33.3 µM.

As to `CC(C)n1c(/C=C/[C@@H](O)C[C@@H](O)CC(=O)O)c(-c2ccc(F)cc2)c2ccccc21`, the GI50 is 10400 nM and 12900 nM; the TGI was over 100 µM.

As for `CCOc1ccc(NCC2CC/C(=C\C=C\c3ccccc3)C2=O)cc1` (centres undefined), the TGI was found to be 73.9 µM.

The test system of a further experiment is A498 renal. In words: NCI tumour cell line growth inhibition, 48 h.
As for `Cc1ccc(C(=O)Nc2ccc(CN3CCN(C)CC3)c(C(F)(F)F)c2)cc1C#Cc1cnc(N)c2ccc(F)cc12`, the GI50 is 327 nM and the TGI came to 0.961 µM.

`CC1(C)CCC(C)(C)c2cc(C(=O)Nc3ccc(C(=O)O)cc3)ccc21` returned a TGI of over 100 µM.

In turn, `CC1=C(C(=O)NC2CCCCC2)CC(C(=O)NC2CCCCC2)=C(C)N1` yielded a TGI of over 100 µM.

On to `Cn1cc(C2=C(c3cn(C)c4ccc(N)cc34)C(=O)NC2=O)c2ccccc21`, for which the GI50 is 9280 nM and the TGI is over 25 µM.

For `S=C(N/N=C/c1cc(Cl)cc(Cl)c1)NC12CC3CC(CC(C3)C1)C2`, the GI50 is 2190 nM and the TGI was determined as 7.73 µM.

The compound `CCCCN1C(=O)CC2[C@@H]3CCc4cc(OC)ccc4C3CC[C@]2(C)C1=O` (some centres undefined) registered a TGI of over 10 µM.

As for `Cc1nc(SCC(N)=O)c2sc(=S)n(-c3ccccc3)c2n1`, the TGI is over 10 µM.

Compound `COc1cc(-c2oc3ccccc3c(=O)c2O)cc(OC)c1OC` yielded a TGI of over 100 µM.

On to `CSc1ccc(/C=C2\CNC/C(=C\c3ccc(SC)cc3)C2=O)cc1`, for which the GI50 was 35.2 µM and 33.2 µg/mL; the TGI was 159 µM and 118 µg/mL.

Regarding `C/C(=N\O)c1ccc(Nc2cc(-n3nnc4ccccc43)nc3ccccc23)cc1`, the GI50 is 7250 nM and the TGI is 30.8 µM.

Regarding `C[C@]12CC[C@@H]3c4ccc(O)c([N+](=O)[O-])c4CC[C@H]3[C@@H]1CC[C@@H]2NS(=O)(=O)c1ccc(C(F)(F)F)cc1`, the GI50 was 1070 nM and the TGI is 3.48 µM.

For the compound `Clc1ccc(COC(Cn2ccnc2)c2ccc(Cl)cc2Cl)cc1` (centres undefined), the GI50 is 1230 nM; the TGI was 8.22 µM and 27.8 µM and 24.2 µM.

Turning to `CC[C@H](C)[C@H](NC(=O)c1cnccn1)C(=O)N(C)[C@H](C[C@@H](OC(C)=O)c1nc(C(=O)N[C@@H](Cc2ccccc2)C[C@H](C)C(=O)OC)cs1)C(C)C`, the GI50 is 907 nM and the TGI was 3.15 µM.

Turning to `CC(C)n1c(/C=C/[C@@H](O)C[C@@H](O)CC(=O)O)c(-c2ccc(F)cc2)c2ccccc21`, the GI50 was 164 nM and 219 nM; the TGI is 0.527 µM and 0.848 µM.

For the compound `CCOc1ccc(NCC2CC/C(=C\C=C\c3ccccc3)C2=O)cc1` (centres undefined), the TGI was over 100 µM.

A further experiment concerns SW-620 colon. In words: NCI tumour cell line growth inhibition, 48 h.
For the compound `Cc1ccc(C(=O)Nc2ccc(CN3CCN(C)CC3)c(C(F)(F)F)c2)cc1C#Cc1cnc(N)c2ccc(F)cc12`, the GI50 was 0.251 µM and the TGI was 0.638 µM.

In the case of `CC1(C)CCC(C)(C)c2cc(C(=O)Nc3ccc(C(=O)O)cc3)ccc21`, the TGI is over 100 µM.

`CC1=C(C(=O)NC2CCCCC2)CC(C(=O)NC2CCCCC2)=C(C)N1` had a TGI of over 100 µM.

As for `Cn1cc(C2=C(c3cn(C)c4ccc(N)cc34)C(=O)NC2=O)c2ccccc21`, the GI50 was 5 µM and the TGI was over 25 µM.

Turning to `S=C(N/N=C/c1cc(Cl)cc(Cl)c1)NC12CC3CC(CC(C3)C1)C2`, the GI50 is 13.4 µM and the TGI was over 100 µM.

Compound `CCCCN1C(=O)CC2[C@@H]3CCc4cc(OC)ccc4C3CC[C@]2(C)C1=O` (some centres undefined) gave a TGI of over 10 µM.

`Cc1nc(SCC(N)=O)c2sc(=S)n(-c3ccccc3)c2n1`: the TGI is over 10 µM.

As to `COc1cc(-c2oc3ccccc3c(=O)c2O)cc(OC)c1OC`, the TGI is over 100 µM.

On to `CSc1ccc(/C=C2\CNC/C(=C\c3ccc(SC)cc3)C2=O)cc1`, for which the GI50 is 150 µg/mL; the TGI is > 371 µM and 150 µg/mL.

Turning to `C/C(=N\O)c1ccc(Nc2cc(-n3nnc4ccccc43)nc3ccccc23)cc1`, the GI50 is 11.6 µM and the TGI was 39.4 µM.

On to `C[C@]12CC[C@@H]3c4ccc(O)c([N+](=O)[O-])c4CC[C@H]3[C@@H]1CC[C@@H]2NS(=O)(=O)c1ccc(C(F)(F)F)cc1`, for which the GI50 is 2.04 µM and the TGI came to 4.78 µM.

In the case of `Clc1ccc(COC(Cn2ccnc2)c2ccc(Cl)cc2Cl)cc1` (centres undefined), the GI50 was 2.96 µM; the TGI is 13.3 µM and 27.4 µM and 29.2 µM.

Regarding `CC[C@H](C)[C@H](NC(=O)c1cnccn1)C(=O)N(C)[C@H](C[C@@H](OC(C)=O)c1nc(C(=O)N[C@@H](Cc2ccccc2)C[C@H](C)C(=O)OC)cs1)C(C)C`, the GI50 was 1.28 µM and the TGI was over 33.3 µM.

Turning to `CC(C)n1c(/C=C/[C@@H](O)C[C@@H](O)CC(=O)O)c(-c2ccc(F)cc2)c2ccccc21`, the GI50 is 3.76 µM and 5.15 µM; the TGI was over 100 µM.

Take `CCOc1ccc(NCC2CC/C(=C\C=C\c3ccccc3)C2=O)cc1` (centres undefined): the TGI was 21.3 µM.
